The assay addresses γ-secretase (Homo sapiens, UniProt P49768). As to the kind of experiment: in vitro assay of γ-secretase activity (HEK293 membrane fraction, recombinant APP substrate, Abeta ELISA). It is filed as biochemical. The note with it: γ-secretase inhibition; HEK293 membrane fraction as source of γ-secretase, recombinant C-terminal 100 amino acids of human APP as substrate, Abeta detected by ELISA. From the text: Description of γ-secretase Assay
The activity of test compounds can be evaluated in assays which measure the proteolytic cleavage of suitable substrates by γ-secretase activity. These can be cellular assays where e.g., a substrate of γ-secretase is fused in its cytoplasmic domain to a transcription factor. Cells are transfected with this fusion gene and a reporter gene, e.g., firefly luciferase, which expression is enhanced by the transcription factor. Cleavage of the fused substrate by γ-secretase will lead to expression of the reporter gene which can be monitored in appropriate assays. The γ-secretase activity can also be determined in cell-free in vitro assays where e.g., a cell lysate containing the γ-secretase complex is incubated with a suitable APP-derived substrate which is cleaved to the Abeta peptides. The amount of produced peptides can be determined with specific ELISA assays. Cell lines of neuronal origin secrete Abeta peptides which can be measured with the specific ELISA assay. Treatment with compounds which inhibit γ-secretase leads to a reduction of secreted Abeta thus providing a measure of inhibition.
The in vitro assay of γ-secretase activity uses a HEK293 membrane fraction as a source of γ-secretase and a recombinant APP substrate. The latter consists of the C-terminal 100 amino acids of human APP fused to a 6×Histidin tail for purification which is expressed in E. coli in a regulatable expression vector, e.g. pEt15. This recombinant protein corresponds to the truncated APP fragment which results after […] of the extracellular domain and which constitutes the γ-secretase substrate. The assay principle is described in Li Y M et al, PNAS 97(11), 6138-6143 (2000). Hek293 cells are mechanically disrupted, and the microsomal fraction is isolated by differential centrifugation. The membranes are solubilized in detergent (0.25% CHAPSO) and incubated with the APP substrate. The Abeta peptides which are produced by γ-secretase cleavage of the substrate are detected by specific ELISA assays as described (Brockhaus M et al, Neuroreport 9(7), 1481-1486 (1998).
The preferred compounds show a IC50<10 nM. In the list below are described some data to the γ-secretase inhibition: […]

The IC50 is the concentration at which inhibition is half-maximal.

SMILES strings stand for the structures.

As to `COc1ccc(CN([C@@H]2CC(F)(F)CCNC2=O)S(=O)(=O)c2ccc(Cl)cc2)c(F)c1F` [Example 4, 4-Chloro-N-(2,3-difluoro-4-methoxy-benzyl)-N-((R)-5,5-difluoro-2-oxo-azepan-3-yl)-benzenesulfonamide], the IC50 is 0.002 µM.
Regarding `O=C1NCCC(F)(F)C[C@H]1N(Cc1ccc(-c2ncn[nH]2)cc1F)S(=O)(=O)c1ccc(Cl)cc1` [Example 12, 4-Chloro-N-((R)-5,5-difluoro-2-oxo-azepan-3-yl)-N-[2-floro-4-(2H-[1,2,4]triazol-3-yl)-benzyl]-benzenesulfonamide], the 50% inhibitory concentration (IC50) was found to be 0.006 µM.
`O=C(NC1CC1)c1ccc(CN([C@@H]2CCC(F)(F)CNC2=O)S(=O)(=O)c2ccc(Cl)cc2)cc1` [Example 13, 4-{[(4-Chloro-benzenesulfonyl)-((R)-6,6-difluoro-2-oxo-azepan-3-yl)-amino]-methyl}-N-cyclopropyl-benzamide]: the IC50 turned out to be 0.297 µM.
For `COc1ccc(CN([C@@H]2CC(F)(F)CCNC2=O)S(=O)(=O)CCC(F)(F)F)cn1` [Example 16, 3,3,3-Trifluoro-propane-1-sulfonic acid ((R)-5,5-difluoro-2-oxo-azepan-3-yl)-(6-methoxy-pyridin-3-ylmethyl)-amide], the IC50 amounted to 0.15 µM.
The result for `COc1ccc(CN([C@@H]2CC(F)(F)CCNC2=O)S(=O)(=O)c2ccc(Cl)s2)cn1` [Example 17, 5-Chloro-thiophene-2-sulfonic acid ((R)-5,5-difluoro-2-oxo-azepan-3-yl)-(6-methoxy-pyridin-3-ylmethyl)-amide] reads 0.11 µM.

The values above are taken from patent US7501406B2, “Fluoro substituted 2-oxo-azepan derivatives” (Hoffmann-La Roche Inc., priority 2005, dated 2009).
